MIC, IC50 and antimicrobial activity data for four molecules are collected here from PMC9915011, “Polymyxin B Conjugates with Bio-Inspired Synthetic Polymers of Different Nature” (International Journal of Molecular Sciences, 2023).

Values after ≈ are worked out from the molar mass of the structure shown.

For test [1], the system named is Acinetobacter baumannii (Ab ATCC 19606). To be noted: cited from earlier work.
In another test the test system is P. aeruginosa. As to conditions: free colistin; cited from earlier work. On the procedure: According to the published works, many factors affect the MIC for conjugates linked with amide bonds. For example, Dubashynskaya et al. observed the dependence of MIC on the degree of substitution (DS). In particular, when the DS was 8%, the MIC against P. aeruginosa for hyaluronan–colistin conjugates was 1 µg/mL, the same as for free colistin. At the same time, a decrease in DS to 5 and 3% was accompanied with the MIC increase to 4 and more than 8 µg/mL, respectively.

The test system of another test is HEK 293T cells. Nature of the test: MTT cytotoxicity in HEK 293T cells, 48 h. Type of test: cell-based, human. As to conditions: free polymers and free PMX B, tested 4 to 1000 µg/mL, mean ± SD, n = 4.
Test [2] has as its system P. aeruginosa (ATCC 27853). The test is described as follows: MIC by microdilution in Müller–Hinton broth. Type of test: cell-based, Pseudomonas aeruginosa. As to conditions: 18 h, OD 630 nm, n = 9. From the text:
P. aeruginosa (ATCC 27853) from Museum of Microbiological Cultures of State Research Institute of Highly Pure Biopreparations FMBA (St. Petersburg, Russia) and Müller–Hinton Broth (HiMedia, Mumbai, India) were used to study the antibacterial effect of PMX B and its conjugates. HEK 293T cells were purchased from the cell culture collection of the Institute of Cytology of Russian Academy of Sciences (St. Petersburg, Russia).
The minimum inhibitory concentration (MIC) of polymyxin B in the conjugates was determined by the microdilution method in Müller–Hinton broth. Before the samples were tested against P. Aeruginosa, they were checked for microbiological purity to exclude possible contamination. In all cases, the absence of microbial growth on Luria–Bertani agar was detected. […] The plate was incubated for 18 h at 37 °C and then the optical density in the wells was measured at 630 nm using a microplate reader (ELx808™ Absorbance Microplate Reader, BioTek-Agilent, Santa Clara, CA, USA). Relative bacterial growth (%) was calculated from the data of OD measured for samples and control according to the equation: (2) Relative bactearial growth=OD630 sample at Cx−OD630 blank/OD630 positive control−OD630 blank×100% where Cx is a certain concentration of the sample. […]
(Dilution methods test growth across graded concentrations, often in twofold steps.)

The next test concerns S. aureus. To be noted: cited from earlier work. An excerpt:
A series of conjugates of loracarbef (cephalosporins) and ciprofloxacin (fluroquinolones) with sideromycins (siderophores) was synthesized and tested against a panel of ESKAPEE bacteria (Enterococcus faecium, S. aureus, Klebsiella pneumoniae, A. baumannii, P. aeruginosa, Enterobacter aerogenes, E. coli).

Experimental for HEK 293T cells: The cell viability was determined after 48 h using the MTT assay (Figure 6).
HEK 293T cells were cultivated in DMEM/F12 medium with 10% FCS, 2 mM glutamine, and 1% gentamicin (Sigma-Aldrich, Darmstadt, Germany). In 96-well plates, 3.5 × 10^3 cells in 100 µL were seeded per well and left for adhesion at 37 °C for 24 in a humidified 5% CO2 atmosphere. After that, the medium in the wells was replaced with 200 µL of solution containing the test samples at the specified concentrations (n = 4) and left for incubation under the same conditions for 48 h. Then, the medium was removed and 100 µL of MTT reagent solution (5 mg/mL stock solution) was added to each well. The plates were incubated in the CO2 incubator for 3 h at 37 °C. Finally, the solution in the well was replaced with 50 µL of DMSO to dissolve formazan crystals and the optical density in each well was measured at 570 nm using fluorescent plate reader (Fluoroscan Ascent, Thermo Fisher Scientific Inc., Waltham, MA, USA). The wavelength of 690 nm was used to measure the background absorbance. The data obtained were normalized as a percentage of the control. Free polymers and PMX B were tested at concentrations ranging from 4 to 1000 µg/mL.

As usually defined, the MIC is the smallest concentration in the dilution series that meets the test's criterion for growth inhibition. Consider colistin, for which the MIC (in test [1]; with P. aeruginosa) was 1 µg/mL in each case.
The IC50 is the concentration that gives 50% inhibition. In the test with HEK 293T cells, polymyxin B [PMX B] came in with an IC50 of 130 ± 14 µg/mL. Moreover, the minimal inhibitory concentration (MIC) in test [2] (P. aeruginosa ATCC 27853, microdilution, Müller–Hinton broth, 1 × 10^7 CFU/mL, 37 °C, MIC of polymyxin B in the conjugates) was 4 µg/mL.
On to `CC(=O)N(O)CCCCCNC(=O)CCC(=O)N(O)CCCCCNC(=O)CCC(=O)N(O)CCCCCN` [DFOA, deferoxamine], for which, in test [2] (P. aeruginosa, concentration range of 0.25–64 μg/mL), the antimicrobial activity result was “neither polymers nor DFOA exhibited antimicrobial activity”.
Take `N[C@@H](C(=O)N[C@@H]1C(=O)N2C(C(=O)O)=C(Cl)CC[C@H]12)c1ccccc1` [loracarbef]: in the test with S. aureus, the MIC is given as 1 µM (≈ 0.35 µg/mL).
